Experimental data from PubChem BioAssay AID256 (DTP/NCI, 2004).
Inconclusive results and toxic doses are left out. The calls were made as follows: active = survival T/C of 150% or more; inactive = T/C below 125% in these data.

Tested on: CD2F1 mice, L1210 leukemia ip, survival T/C
Test: NCI In Vivo Anticancer Drug Screen. Data for tumor model L1210 Leukemia (intraperitoneal) in CD2F1 (CDF1) mice
Settings: endpoint: mean survival time, higher = longer survival
Method in brief: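 Read-out first: treated-group measurement over vehicle-control measurement, expressed as a ratio. Animals bore a transplanted tumor line and were dosed with compound or vehicle.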

[1] = dose: 100.0 mg/kg/injection, schedule: Q01DX001 (ip), vehicle: saline
[2] = dose: 200.0 mg/kg/injection, schedule: Q01DX001 (ip), vehicle: saline
[3] = dose: 400.0 mg/kg/injection, schedule: Q01DX001 (ip), vehicle: saline
[4] = dose: 100.0 mg/kg/injection, schedule: Q04DX003 (ip), vehicle: saline with Tween-80
[5] = dose: 200.0 mg/kg/injection, schedule: Q04DX003 (ip), vehicle: saline with Tween-80
[6] = dose: 6.25 mg/kg/injection, schedule: Q01DX009 (ip), vehicle: saline with Tween-80
[7] = dose: 12.5 mg/kg/injection, schedule: Q01DX009 (ip), vehicle: saline with Tween-80
[8] = dose: 25.0 mg/kg/injection, schedule: Q01DX009 (ip), vehicle: saline with Tween-80
[9] = dose: 100.0 mg/kg/injection, schedule: Q04DX003 (ip), vehicle: Klucel (hydroxypropylcellulose) (HPC)
[10] = dose: 200.0 mg/kg/injection, schedule: Q04DX003 (ip), vehicle: Klucel (hydroxypropylcellulose) (HPC)
[11] = dose: 1.25 mg/kg/injection, schedule: Q01DX009 (ip), vehicle: Klucel (hydroxypropylcellulose) (HPC)
[12] = dose: 75.0 mg/kg/injection, schedule: Q01DX001 (ip), vehicle: saline
[13] = dose: 50.0 mg/kg/injection, schedule: Q01DX009 (ip), vehicle: saline with Tween-80
[14] = dose: 100.0 mg/kg/injection, schedule: Q01DX009 (ip), vehicle: saline with Tween-80
[15] = dose: 100.0 mg/kg/injection, schedule: Q04DX002 (ip), vehicle: saline with Tween-80
[16] = dose: 200.0 mg/kg/injection, schedule: Q04DX002 (ip), vehicle: saline with Tween-80
[17] = dose: 100.0 mg/kg/injection, schedule: Q01DX001 (ip), vehicle: saline with Tween-80
[18] = dose: 200.0 mg/kg/injection, schedule: Q01DX001 (ip), vehicle: saline with Tween-80
[19] = dose: 400.0 mg/kg/injection, schedule: Q01DX001 (ip), vehicle: saline with Tween-80
[20] = dose: 200.0 mg/kg/injection, schedule: Q01DX009 (ip), vehicle: saline with Tween-80
[21] = dose: 400.0 mg/kg/injection, schedule: Q01DX009 (ip), vehicle: saline with Tween-80

Measured: T/C

NC(=O)c1c(Cl)n(C2OC(CO)C(O)C2O)c2ncnc(N)c12 (centres undefined)
inactive: dose: 1.0 mg/kg/injection, schedule: Q01DX005 (ip), vehicle: distilled water + Tween-80 103 % of control | dose: 2.0 mg/kg/injection, schedule: Q01DX005 (ip), vehicle: distilled water + Tween-80 101 % of control | dose: 4.0 mg/kg/injection, schedule: Q01DX005 (ip), vehicle: distilled water + Tween-80 106 % of control | dose: 8.0 mg/kg/injection, schedule: Q01DX005 (ip), vehicle: distilled water + Tween-80 103 % of control | dose: 16.0 mg/kg/injection, schedule: Q01DX005 (ip), vehicle: distilled water + Tween-80 114 % of control | dose: 32.0 mg/kg/injection, schedule: Q01DX005 (ip), vehicle: distilled water + Tween-80 109 % of control

CC(=O)Nc1cccc(N(CCOS(C)(=O)=O)CCOS(C)(=O)=O)c1
inactive: dose: 0.5 mg/kg/injection, schedule: Q01DX009 (ip), vehicle: saline 122 % of control

Cc1ccc(S(=O)(=O)OC2CCSCC2)cc1
inactive: [1] 102 % of control | [2] 94 % of control | [3] 94 % of control

COC(=O)C(Cc1cnc[nH]1)NC(=O)c1ccccc1 (centres undefined)
inactive: [4] 103 % of control | [5] 104 % of control | dose: 400.0 mg/kg/injection, schedule: Q04DX003 (ip), vehicle: saline with Tween-80 97 % of control

O=C1C(Br)=C(Br)C(=O)C1(Br)Br
inactive: [6] 97 % of control | [7] 103 % of control | [8] 92 % of control

OCCN(Cc1ccccc1)C(c1ccccc1)c1ccccc1
inactive: [9] 91 % of control | [10] 97 % of control | dose: 400.0 mg/kg/injection, schedule: Q04DX003 (ip), vehicle: Klucel (hydroxypropylcellulose) (HPC) 97 % of control

COC1CC(CC2CCC(C)C(C(C)C(=O)O)O2)OC2(OC(C)(C3CCC(C)(C4OC(C5OC(O)(CO)C(C)CC5C)CC4C)O3)CC2C)C1C (centres undefined)
inactive: dose: 0.31 mg/kg/injection, schedule: Q01DX009 (ip), vehicle: Klucel (hydroxypropylcellulose) (HPC) 92 % of control | dose: 0.63 mg/kg/injection, schedule: Q01DX009 (ip), vehicle: Klucel (hydroxypropylcellulose) (HPC) 106 % of control | [11] 110 % of control | dose: 2.5 mg/kg/injection, schedule: Q01DX009 (ip), vehicle: Klucel (hydroxypropylcellulose) (HPC) 106 % of control

Cc1cc2c(C)c3cc(C)c(N)cc3nc2cc1N
inactive: [12] 103 % of control

CCOC(=O)C1=C(C)NC(C)=C(C(=O)OCC)C1c1ccccc1Cl
inactive: dose: 12.5 mg/kg/injection, schedule: Q01DX009 (ip), vehicle: acetone 102 % of control | dose: 25.0 mg/kg/injection, schedule: Q01DX009 (ip), vehicle: acetone 100 % of control | dose: 50.0 mg/kg/injection, schedule: Q01DX009 (ip), vehicle: acetone 104 % of control

O=c1[nH]c2ccc(Br)cc2c2ccccc12
inactive: [1] 90 % of control | [2] 94 % of control | [3] 100 % of control

NNC(=O)c1cc(NN)ccn1
inactive: [13] 102 % of control | [14] 100 % of control | [4] 100 % of control | [5] 98 % of control

CCC(=O)O/N=C(\c1ccccc1)c1cccnc1
inactive: dose: 100.0 mg/kg/injection, schedule: Q01DX001 (ip), vehicle: other 113 % of control | dose: 200.0 mg/kg/injection, schedule: Q01DX001 (ip), vehicle: other 98 % of control | dose: 400.0 mg/kg/injection, schedule: Q01DX001 (ip), vehicle: other 101 % of control

COC(=O)C(OC)c1ccc2ccccc2c1 (centres undefined)
inactive: [15] 98 % of control | [16] 98 % of control | dose: 400.0 mg/kg/injection, schedule: Q04DX002 (ip), vehicle: saline with Tween-80 102 % of control

OC1CC2C=CC1CC2 (centres undefined)
inactive: dose: 100.0 mg/kg/injection, schedule: Q01DX009 (ip), vehicle: saline 97 % of control | dose: 200.0 mg/kg/injection, schedule: Q01DX009 (ip), vehicle: saline 94 % of control | dose: 400.0 mg/kg/injection, schedule: Q01DX009 (ip), vehicle: saline 100 % of control

C1=C(c2ccccc2)NCC1c1ccccc1 (centres undefined)
inactive: [17] 94 % of control | [18] 86 % of control | [19] 89 % of control

Cc1nnc(-c2ccccc2)c(-c2ccccc2)n1
inactive: dose: 50.0 mg/kg/injection, schedule: Q04DX002 (ip), vehicle: saline with Tween-80 103 % of control | [17] 93 % of control | [15] 98 % of control | [18] 95 % of control | [16] 95 % of control | [19] 91 % of control

CC(=O)C1CCC2C3CC=C4CC(n5cc(C)c(=O)[nH]c5=O)CCC4(C)C3CCC12C (centres undefined)
inactive: dose: 12.5 mg/kg/injection, schedule: Q04DX003 (ip), vehicle: Klucel (hydroxypropylcellulose) (HPC) 90 % of control | dose: 25.0 mg/kg/injection, schedule: Q01DX001 (ip), vehicle: Klucel (hydroxypropylcellulose) (HPC) 95 % of control | dose: 25.0 mg/kg/injection, schedule: Q04DX003 (ip), vehicle: Klucel (hydroxypropylcellulose) (HPC) 96 % of control | dose: 50.0 mg/kg/injection, schedule: Q01DX001 (ip), vehicle: Klucel (hydroxypropylcellulose) (HPC) 100 % of control | dose: 50.0 mg/kg/injection, schedule: Q04DX003 (ip), vehicle: Klucel (hydroxypropylcellulose) (HPC) 94 % of control | dose: 100.0 mg/kg/injection, schedule: Q01DX001 (ip), vehicle: Klucel (hydroxypropylcellulose) (HPC) 88 % of control | [9] 100 % of control | dose: 200.0 mg/kg/injection, schedule: Q01DX001 (ip), vehicle: Klucel (hydroxypropylcellulose) (HPC) 91 % of control | [10] 102 % of control | dose: 400.0 mg/kg/injection, schedule: Q01DX001 (ip), vehicle: Klucel (hydroxypropylcellulose) (HPC) 95 % of control

CCN(CC)CCC(O)c1ccc2c3ccccc3n(C)c2c1 (centres undefined)
inactive: [15] 109 % of control

COc1ccccc1C(=O)C1N=C(c2ccccc2)OC1=O (centres undefined)
inactive: [1] 98 % of control | [2] 97 % of control | [3] 97 % of control

CCC1(C)CC(=O)NC1=O (centres undefined)
inactive: [12] 98 % of control | dose: 150.0 mg/kg/injection, schedule: Q01DX001 (ip), vehicle: saline 104 % of control | dose: 300.0 mg/kg/injection, schedule: Q01DX001 (ip), vehicle: saline 96 % of control

Cc1nc(C#N)c(N)nc1Cl
inactive: dose: 100.0 mg/kg/injection, schedule: Q04DX002 (ip), vehicle: Klucel (hydroxypropylcellulose) (HPC) 109 % of control | dose: 200.0 mg/kg/injection, schedule: Q04DX002 (ip), vehicle: Klucel (hydroxypropylcellulose) (HPC) 91 % of control | dose: 400.0 mg/kg/injection, schedule: Q04DX002 (ip), vehicle: Klucel (hydroxypropylcellulose) (HPC) 109 % of control

OC1CCCC2CCCNC12 (centres undefined)
inactive: [11] 109 % of control | dose: 3.12 mg/kg/injection, schedule: Q01DX009 (ip), vehicle: saline with Tween-80 98 % of control | [6] 88 % of control | [7] 103 % of control | dose: 25.0 mg/kg/injection, schedule: Q01DX009 (ip), vehicle: Klucel (hydroxypropylcellulose) (HPC) 107 % of control | [8] 104 % of control | dose: 50.0 mg/kg/injection, schedule: Q01DX009 (ip), vehicle: Klucel (hydroxypropylcellulose) (HPC) 98 % of control | [13] 110 % of control

CSc1nc(C)cc(Cl)n1
inactive: [13] 94 % of control | [14] 92 % of control | [4] 103 % of control | [20] 95 % of control | [5] 97 % of control

CC1(C)OCCCO1
inactive: dose: 25.0 mg/kg/injection, schedule: Q04DX002 (ip), vehicle: saline 104 % of control | dose: 50.0 mg/kg/injection, schedule: Q04DX002 (ip), vehicle: saline 96 % of control | dose: 100.0 mg/kg/injection, schedule: Q04DX002 (ip), vehicle: saline 100 % of control

O=C1CC(CO)CN1CCc1ccccc1 (centres undefined)
inactive: [14] 96 % of control | [20] 92 % of control | [21] 95 % of control

O=[N+]([O-])c1ccccc1NC(Nc1ccccc1[N+](=O)[O-])C(Cl)(Cl)Cl
inactive: [14] 98 % of control | [20] 101 % of control | [21] 101 % of control
